# Patent publication US20130172414A1, “PHARMACEUTICAL COMPOSITION COMPRISING LEVOCARNITINE AND DOBESILATE” (TIANJIN NANKAI SHARE PHARMACEUTICAL SCIENCE & TECHNOLOGY …, priority 2010, published 2013)
# Experiments:
# [1] = test system: adenine-induced mice renal failure model; experiment: Pharmacodynamic test, chronic renal failure model (Example 5); type: in vivo, SPF grade Kunming mice; settings: for Water content of renal tissue / blood urea nitrogen (BUN) / body weight after 4 weeks / renal index / serum creatinine (Scr): 350 mg/kg once per day for 4 weeks, n=10; for values of Scr and BUN as compared with the renal failure group: 350 mg/kg, 4 weeks
# Procedure: Based on intergroup consistency principle, SPF grade Kunming mice (with a body weight of about 20 to 22 g, half male and half female) were randomly divided into 5 groups (n=10) with one of them as the control group. Except for control group, 300 mg/kg (20 ml/kg·d) of adenine was administrated given to mice once per day for successive 3 days by gavage, thereby to obtain adenine-induced mice renal failure model as described in the references (see for example Pingdong Zheng et. al, “The establishment of chronic renal failure animal model with adenine, Chinese Journal of Nephrology, 1989, 5(4): 342-344; Deyu Guo et. al., “The establishment of mice model with chronic renal insufficiency”, CHINESE JOURNAL OF LABORATORY ANIMAL SCIENCE, 2001, 11(3): 142-145; and Shuling Sun et. al, “The traditional Chinese medicinal intervention and pathological observations in mice chronic renal failure model”, ZHEJIANG JOURNAL OF INTEGRATED TRADITIONAL CHINESE AND WESTERN MEDICINE, 2002, 12(4): 221-222).
# Thereafter, except for the control group, based on intergroup consistency principle, the remaining 4 groups were redivided randomly into 4 groups, renal failure group, levocarnitine (350 mg/kg) group, calcium dobesilate (350 mg/kg) group, as well as levocarnitine and calcium dobesilate group (350 mg/kg) (wherein the ratio of levocamitine and calcium dobesilate is 1:1). Except for the renal failure group, mice of each group were administrated at the given dosage once per day for successive 4 weeks. Then the data for the mice of each group such as body weight, blood urea nitrogen (BUN), serum creatinine (Scr), renal index and water content of renal tissue were determined.
# mice = experiment: Mice acute toxicity test (Example 7); settings: mice acute toxicity
# From the text: (§1) Toxicity Test According to the methods described in literatures (“Guiding principles for acute toxicity test of a chemical drug”, No. [H]GPT1-1, CENTER FOR DRUG EVALUATION, SFDA; Bojun Yuan et. al., “The Preclinical Safety Evaluation and Practice of New Drug”, Military Medical Science Press, 1997: 23-36[…] Bojun Yuan et. al., “Methods and Techniques for Drug ToxicologicalTest”, Chemical Industry Press, 2008: 200-210), the preparation of levocamitine and calcium dobesilate obtained from example 2 was tested for mice acute toxicity.
# [2] = test system: rats in chronic renal failure model; settings: cited from earlier work
# [3] = Mice acute toxicity test (Example 7); settings: mouse, in vivo
# From the text: as §1
# ischemic/reperfused rat = settings: cited from earlier work
Compound,Water content of renal tissue [1] [%],blood urea nitrogen (BUN) [1] [mmol/L],body weight after 4 weeks [1] [g],renal index [1],serum creatinine (Scr) [1] [µmol/L],values of Scr and BUN as compared with the renal failure group [1],LD50 (mice) [mg/kg],content of thromboxane Az in the homogenate of renal cortex [2],level of Scr and BUN [2],LD50 [3] [mg/kg],content of malonaldehyde (MDA) in renal tissue (ischemic/reperfused rat),content of reduced glutathione (GSH) (ischemic/reperfused rat),serum creatinine (Scr) and blood urea nitrogen (BUN) (ischemic/reperfused rat)
"O=S(=O)([O-])c1cc(O)ccc1O.O=S(=O)([O-])c1cc(O)ccc1O.[Ca+2] [Calcium dobesilate, calcium dobesilate]",75.9 ± 1.8,11.8 ± 7.0,31.6 ± 4.6,7.2 ± 0.7,10.0 ± 9.2,decreased,10600,reduce notably,decreasing,–,–,–,–
"C[N+](C)(C)C[C@H](O)CC(=O)[O-] [Levocarnitine, (R)-3-carboxy-2-hydroxy-N,N,N-trimethyl-1-propanaminium hydroxide]",76.0 ± 2.0,9.7 ± 5.8,32.3 ± 5.3,7.0 ± 1.3,21.6 ± 11.8,decreased,–,–,–,19200,reduce,increase,can reduce
